The values that follow come from patent US8796289B2 (AbbVie Inc., priority 2011, dated 2014).

pKi: −log10 of the molar value.

By pKi is commonly meant the Ki on a negative log10 scale, so that one unit is a factor of ten. A lower pKi goes with a high Ki.

GST-tagged-Wee1 kinase, sequence (P30291 whole entry): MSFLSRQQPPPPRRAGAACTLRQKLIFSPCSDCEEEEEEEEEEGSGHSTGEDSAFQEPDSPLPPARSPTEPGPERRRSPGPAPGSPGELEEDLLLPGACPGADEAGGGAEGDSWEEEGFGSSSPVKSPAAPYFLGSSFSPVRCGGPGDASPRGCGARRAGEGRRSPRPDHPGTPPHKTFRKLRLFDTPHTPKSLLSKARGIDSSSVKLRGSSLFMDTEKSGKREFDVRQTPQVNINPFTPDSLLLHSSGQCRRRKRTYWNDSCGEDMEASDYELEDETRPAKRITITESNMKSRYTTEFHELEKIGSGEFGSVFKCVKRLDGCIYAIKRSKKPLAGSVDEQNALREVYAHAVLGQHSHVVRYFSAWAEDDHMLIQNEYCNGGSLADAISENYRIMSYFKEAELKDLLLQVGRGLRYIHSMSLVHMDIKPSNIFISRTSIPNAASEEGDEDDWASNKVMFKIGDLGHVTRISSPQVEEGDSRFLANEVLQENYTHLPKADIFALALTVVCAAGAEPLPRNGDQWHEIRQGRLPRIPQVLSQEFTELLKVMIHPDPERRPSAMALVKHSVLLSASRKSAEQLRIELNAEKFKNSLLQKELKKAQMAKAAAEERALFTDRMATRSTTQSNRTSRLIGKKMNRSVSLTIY

The target in this experiment is GST-tagged-Wee1 kinase (Homo sapiens, UniProt P30291). Put plainly: Wee1 time-resolved fluorescence equilibrium binding assay (displacement of Oregon Green-labeled ATP-competitive kinase probe). The procedure:
Wee1 kinase was assayed using a time-resolved fluorescence equilibrium binding assay monitoring displacement of a rapidly reversible Oregon Green-labeled ATP-competitive kinase probe (N-(2-(2-(2-(4-(4-(5-chloro-4-(2-(1-hydroxycyclobutyl)thiazol-5-yl)-1H-pyrrolo[2,3-b]pyridin-2-yl)phenyl)piperazin-1-yl)ethoxy)ethoxy)ethyl)-2′,7′-difluoro-3′,6′-dihydroxy-3-oxo-3H-spiro[isobenzofuran-1,9′-xanthene]-5-carboxamide) by competitive Wee1 inhibitors.
Molecule `Cc1nn(-c2c(Cl)cccc2Cl)c(=O)c2cnc(Nc3ccc(C4CCCN4)cc3)nc12` (stereo not drawn) [Example 455, 6-(2,6-dichlorophenyl)-8-methyl-2-{[4-(pyrrolidin-2-yl)phenyl]amino}pyrimido[4,5-d]pyridazin-5(6H)-one] gave a negative logarithm of the Ki (pKi) of 9.30.
Regarding `Cc1nn(-c2c(Cl)cccc2Cl)c(=O)c2cnc(Nc3ccc(C4CCN(C)CC4)cc3)nc12` [Example 456, 6-(2,6-dichlorophenyl)-8-methyl-2-{[4-(1-methylpiperidin-4-yl)phenyl]amino}pyrimido[4,5-d]pyridazin-5(6H)-one], the negative-log Ki (pKi) was 9.30.
As for `Cc1nn(-c2c(Cl)cccc2Cl)c(=O)c2cnc(Nc3ccc(N4C[C@H]5C[C@@H]4CN5)cc3)nc12` [Example 457, 2-({4-[(1R,4R)-2,5-diazabicyclo[2.2.1]hept-2-yl]phenyl}amino)-6-(2,6-dichlorophenyl)-8-methylpyrimido[4,5-d]pyridazin-5(6H)-one], the pKi was 9.55.
Regarding `Cc1nn(-c2c(Cl)cccc2Cl)c(=O)c2cnc(Nc3ccc(C4CCNCC4)cc3)nc12` [Example 458, 6-(2,6-dichlorophenyl)-8-methyl-2-{[4-(piperidin-4-yl)phenyl]amino}pyrimido[4,5-d]pyridazin-5(6H)-one], the pKi is 9.64.
For the molecule `Cc1nn(-c2c(Cl)cccc2Cl)c(=O)c2cnc(Nc3ccc(C4CCCNC4)cc3)nc12` (stereo not drawn) [Example 459, 6-(2,6-dichlorophenyl)-8-methyl-2-{[4-(piperidin-3-yl)phenyl]amino}pyrimido[4,5-d]pyridazin-5(6H)-one], the pKi is 9.77. This pKi and that of the molecule before are within 0.2 log units of each other.
`CCc1nn(-c2c(Cl)cccc2Cl)c(=O)c2cnc(Nc3ccc4c(c3)CCN(C)C4(C)C)nc12` [Example 460, 6-(2,6-dichlorophenyl)-8-ethyl-2-[(1,1,2-trimethyl-1,2,3,4-tetrahydroisoquinolin-6-yl)amino]pyrimido[4,5-d]pyridazin-5(6H)-one] showed a pKi of 9.49.
With `CCc1nn(-c2c(Cl)cccc2Cl)c(=O)c2cnc(Nc3ccc4c(c3)C(C)(C)N(C)CC4)nc12` [Example 461, 6-(2,6-dichlorophenyl)-8-ethyl-2-[(1,1,2-trimethyl-1,2,3,4-tetrahydroisoquinolin-7-yl)amino]pyrimido[4,5-d]pyridazin-5(6H)-one] the figure was 9.17; with `CCc1nn(-c2c(Cl)cccc2Cl)c(=O)c2cnc(Nc3ccc4c(c3)CNCC4(C)C)nc12` [Example 462, 6-(2,6-dichlorophenyl)-2-[(4,4-dimethyl-1,2,3,4-tetrahydroisoquinolin-7-yl)amino]-8-ethylpyrimido[4,5-d]pyridazin-5(6H)-one], 9.02.
As for `CCc1nn(-c2c(Cl)cccc2Cl)c(=O)c2cnc(Nc3ccc4c(c3)C(C)(C)NCC4)nc12` [Example 463, 6-(2,6-dichlorophenyl)-2-[(1,1-dimethyl-1,2,3,4-tetrahydroisoquinolin-7-yl)amino]-8-ethylpyrimido[4,5-d]pyridazin-5(6H)-one], the pKi is 9.26.
As to `CCc1nn(-c2c(Cl)cccc2Cl)c(=O)c2cnc(Nc3ccc4c(c3)CNC(=O)C4)nc12` [Example 464, 6-(2,6-dichlorophenyl)-8-ethyl-2-[(3-oxo-1,2,3,4-tetrahydroisoquinolin-7-yl)amino]pyrimido[4,5-d]pyridazin-5(6H)-one], the pKi is 8.80.
The molecule `CCc1nn(-c2c(Cl)cccc2Cl)c(=O)c2cnc(Nc3ccc(CN4CCN(C)CC4)cc3)nc12` [Example 465, 6-(2,6-dichlorophenyl)-8-ethyl-2-({4-[(4-methylpiperazin-1-yl)methyl]phenyl}amino)pyrimido[4,5-d]pyridazin-5(6H)-one] had a pKi of 9.06.
In the case of `CCc1nn(-c2c(Cl)cccc2Cl)c(=O)c2cnc(Nc3ccc4c(c3)CCNC4(C)C)nc12` [Example 466, 6-(2,6-dichlorophenyl)-2-[(1,1-dimethyl-1,2,3,4-tetrahydroisoquinolin-6-yl)amino]-8-ethylpyrimido[4,5-d]pyridazin-5(6H)-one], the pKi is 9.47.
Take `Cc1nn(-c2c(Cl)cccc2Cl)c(=O)c2cnc(Nc3ccc4c(c3)CNC(=O)C4)nc12` [Example 467, 6-(2,6-dichlorophenyl)-8-methyl-2-[(3-oxo-1,2,3,4-tetrahydroisoquinolin-7-yl)amino]pyrimido[4,5-d]pyridazin-5(6H)-one]: the negative logarithm of the Ki (pKi) is 9.33.
Take `CCc1nn(-c2c(Cl)cccc2Cl)c(=O)c2cnc(Nc3ccc(N4C[C@H]5C[C@@H]4CN5)cc3)nc12` [Example 468, 2-({4-[(1R,4R)-2,5-diazabicyclo[2.2.1]hept-2-yl]phenyl}amino)-6-(2,6-dichlorophenyl)-8-ethylpyrimido[4,5-d]pyridazin-5(6H)-one]: the pKi was 9.16. The pKi values of the last two molecules are within 0.2 log units of each other.
`CCc1nn(-c2c(Cl)cccc2Cl)c(=O)c2cnc(Nc3ccc(N4CCCN(C)CC4)c(C)c3)nc12` [Example 469, 6-(2,6-dichlorophenyl)-8-ethyl-2-{[3-methyl-4-(4-methyl-1,4-diazepan-1-yl)phenyl]amino}pyrimido[4,5-d]pyridazin-5(6H)-one] gave a pKi of 9.20. The pKi values of the last two molecules are within 0.2 log units of each other.
`CCc1nn(-c2c(Cl)cccc2Cl)c(=O)c2cnc(Nc3ccc(N4CCNC(=O)C4)cc3)nc12` [Example 470, 6-(2,6-dichlorophenyl)-8-ethyl-2-{[4-(3-oxopiperazin-1-yl)phenyl]amino}pyrimido[4,5-d]pyridazin-5(6H)-one]: the pKi is 9.00.
The molecule `Cc1nn(-c2c(Cl)cccc2Cl)c(=O)c2cnc(Nc3ccc4c(c3)CN(C)C4(C)C)nc12` [Example 471, 6-(2,6-dichlorophenyl)-8-methyl-2-[(1,1,2-trimethyl-2,3-dihydro-1H-isoindol-5-yl)amino]pyrimido[4,5-d]pyridazin-5(6H)-one] showed a pKi of 9.80.
In turn, `Cc1nn(-c2c(Cl)cccc2Cl)c(=O)c2cnc(Nc3cc4c(cc3Cl)CNCC4)nc12` [Example 472, 2-[(7-chloro-1,2,3,4-tetrahydroisoquinolin-6-yl)amino]-6-(2,6-dichlorophenyl)-8-methylpyrimido[4,5-d]pyridazin-5(6H)-one] gave a pKi of 8.64. Compared with the last molecule, the pKi is 1.16 log units lower.
In turn, `O=c1c2cnc(Nc3ccc4c(c3)CCNC4)nc2c(C(F)F)nn1-c1c(Cl)cccc1Cl` [Example 473, 6-(2,6-dichlorophenyl)-8-(difluoromethyl)-2-(1,2,3,4-tetrahydroisoquinolin-6-ylamino)pyrimido[4,5-d]pyridazin-5(6H)-one] had a negative-log Ki (pKi) of 9.42. This pKi is 0.78 log units higher than that of the molecule before.
For `CN1CCc2ccc(Nc3ncc4c(=O)n(-c5c(Cl)cccc5Cl)nc(C(F)F)c4n3)cc2C1` [Example 475, 6-(2,6-dichlorophenyl)-8-(difluoromethyl)-2-[(2-methyl-1,2,3,4-tetrahydroisoquinolin-7-yl)amino]pyrimido[4,5-d]pyridazin-5(6H)-one], the pKi was 9.62.
Regarding `CC(=O)N1CCc2cc(Nc3ncc4c(=O)n(-c5c(Cl)cccc5Cl)nc(C(F)F)c4n3)ccc2C1` [Example 476, 2-[(2-acetyl-1,2,3,4-tetrahydroisoquinolin-6-yl)amino]-6-(2,6-dichlorophenyl)-8-(difluoromethyl)pyrimido[4,5-d]pyridazin-5(6H)-one], the pKi was 9.77.
As to `CC(=O)N1CCc2ccc(Nc3ncc4c(=O)n(-c5c(Cl)cccc5Cl)nc(C(F)F)c4n3)cc2C1` [Example 477, 2-[(2-acetyl-1,2,3,4-tetrahydroisoquinolin-7-yl)amino]-6-(2,6-dichlorophenyl)-8-(difluoromethyl)pyrimido[4,5-d]pyridazin-5(6H)-one], the negative logarithm of the Ki (pKi) is 9.17.
Turning to `CC1(C)CNCc2cc(Nc3ncc4c(=O)n(-c5c(Cl)cccc5Cl)nc(C(F)F)c4n3)ccc21` [Example 478], the pKi was 9.77.
With `O=c1c2cnc(Nc3ccc(C4CCCNC4)cc3)nc2c(C(F)F)nn1-c1c(Cl)cccc1Cl` (stereo not drawn) [Example 479, 6-(2,6-dichlorophenyl)-8-(difluoromethyl)-2-{[4-(piperidin-3-yl)phenyl]amino}pyrimido[4,5-d]pyridazin-5(6H)-one] the figure was 9.54.
Regarding `Cc1nn(-c2c(Cl)cccc2Cl)c(=O)c2cnc(Nc3cc4c(cc3F)CNCC4)nc12` [Example 480, 6-(2,6-dichlorophenyl)-2-[(7-fluoro-1,2,3,4-tetrahydroisoquinolin-6-yl)amino]-8-methylpyrimido[4,5-d]pyridazin-5(6H)-one], the pKi was 8.89.
With `Cc1nn(-c2ccccc2Cl)c(=O)c2cnc(Nc3ccc4c(c3)CCNC4)nc12` [Example 481, 6-(2-chlorophenyl)-8-methyl-2-(1,2,3,4-tetrahydroisoquinolin-6-ylamino)pyrimido[4,5-d]pyridazin-5(6H)-one] the figure was 9.14; with `Cc1nn(-c2ccccc2Cl)c(=O)c2cnc(Nc3ccc4c(c3)CNCC4(C)C)nc12` [Example 482, 6-(2-chlorophenyl)-2-[(4,4-dimethyl-1,2,3,4-tetrahydroisoquinolin-7-yl)amino]-8-methylpyrimido[4,5-d]pyridazin-5(6H)-one], 9.51; with `Cc1nn(-c2ccccc2Cl)c(=O)c2cnc(Nc3ccc4c(c3)CN(C)CC4(C)C)nc12` [Example 483, 6-(2-chlorophenyl)-8-methyl-2-[(2,4,4-trimethyl-1,2,3,4-tetrahydroisoquinolin-7-yl)amino]pyrimido[4,5-d]pyridazin-5(6H)-one], 9.26.
`Cc1nn(-c2ccccc2Cl)c(=O)c2cnc(Nc3ccc4c(c3)CC(N(C)C)C4)nc12` (stereo not drawn) [Example 484, 6-(2-chlorophenyl)-2-{[2-(dimethylamino)-2,3-dihydro-1H-inden-5-yl]amino}-8-methylpyrimido[4,5-d]pyridazin-5(6H)-one] showed a negative logarithm of the Ki (pKi) of 9.77. This pKi is 0.51 log units higher than that of the molecule before.
In turn, `CN1Cc2cc(Nc3ncc4c(=O)n(-c5c(Cl)cccc5Cl)nc(C(F)F)c4n3)ccc2C1(C)C` [Example 485, 6-(2,6-dichlorophenyl)-8-(difluoromethyl)-2-[(1,1,2-trimethyl-2,3-dihydro-1H-isoindol-5-yl)amino]pyrimido[4,5-d]pyridazin-5(6H)-one] gave a negative logarithm of the Ki (pKi) of 9.82.
